Laboratory results taken from ChEMBL document CHEMBL2429820, “Synthesis and anticonvulsant activity evaluation of 7-alkoxy-2,4-dihydro-1H-benzo[b][1,2,4]triazolo[4,3-d][1,4]thiazin-1-ones in various murine experimental seizure models” (Med Chem Res, 2013).
The source made the active and inactive calls. The calls are words filed in the database; no cut-off is given here.

Key:
Mus musculus [1] = assay: Anticonvulsant activity in KunMing mouse assessed as protection against maximal electroshock-induced seizure at 100 mg/kg, ip after 0.5 hrs; format: functional, organism-based; set-up: dose 100 mg/kg
Mus musculus [2] = assay: Anticonvulsant activity in KunMing mouse assessed as protection against maximal electroshock-induced seizure at 15 mg/kg, ip after 0.5 hrs; format: functional, organism-based; set-up: dose 15 mg/kg
Mus musculus [3] = assay: Anticonvulsant activity in KunMing mouse assessed as protection against maximal electroshock-induced seizure at 30 mg/kg, ip after 0.5 hrs; format: functional, organism-based; set-up: dose 30 mg/kg
Mus musculus [4] = assay: Anticonvulsant activity in ip dosed KunMing mouse assessed as protection against maximal electroshock-induced seizure after 0.5 hrs; format: functional
Mus musculus [5] = assay: Protective index, ratio of TD50 for ip dosed KunMing mouse to ED50 for ip dosed KunMing mouse; format: functional
[6] = Neurotoxicity in ip dosed KunMing mouse assessed as inability of animal to maintain equilibrium on rod for at least 1 min; format: toxicity, organism-based; conditions: in vivo
Mus musculus [7] = assay: Anticonvulsant activity against 3-mercaptopropionic acid-induced seizure in KunMing mouse assessed as clonic seizure level at 30 mg/kg, ip administered 30 mins before 3-mercaptopropionic acid challenge measured after 30 mins; format: functional; conditions: route intraperitoneal
Mus musculus [8] = assay: Anticonvulsant activity against 3-mercaptopropionic acid-induced seizure in KunMing mouse assessed as lethality at 30 mg/kg, ip administered 30 mins before 3-mercaptopropionic acid challenge measured after 30 mins; format: functional; conditions: route intraperitoneal
Mus musculus [9] = assay: Anticonvulsant activity against bicuculline-induced seizure in KunMing mouse assessed as clonic seizure level at 30 mg/kg, ip administered 30 mins before bicuculline challenge measured after 30 mins; format: functional; conditions: route intraperitoneal
Mus musculus [10] = assay: Anticonvulsant activity against pentylenetetrazole-induced seizure in KunMing mouse assessed as tonic seizure level at 30 mg/kg, ip administered 30 mins before pentylenetetrazole challenge measured after 30 mins; format: functional; conditions: route intraperitoneal
Mus musculus [11] = assay: Anticonvulsant activity against 3-mercaptopropionic acid-induced seizure in KunMing mouse assessed as tonic seizure level at 30 mg/kg, ip administered 30 mins before 3-mercaptopropionic acid challenge measured after 30 mins; format: functional; conditions: route intraperitoneal
Mus musculus [12] = assay: Anticonvulsant activity against pentylenetetrazole-induced seizure in KunMing mouse assessed as lethality at 30 mg/kg, ip administered 30 mins before pentylenetetrazole challenge measured after 30 mins; format: functional; conditions: route intraperitoneal
Mus musculus [13] = assay: Anticonvulsant activity against bicuculline-induced seizure in KunMing mouse assessed as lethality at 30 mg/kg, ip administered 30 mins before bicuculline challenge measured after 30 mins; format: functional; conditions: route intraperitoneal
Mus musculus [14] = assay: Anticonvulsant activity against pentylenetetrazole-induced seizure in KunMing mouse assessed as clonic seizure level at 30 mg/kg, ip administered 30 mins before pentylenetetrazole challenge measured after 30 mins; format: functional; conditions: route intraperitoneal
Mus musculus [15] = assay: Anticonvulsant activity against bicuculline-induced seizure in KunMing mouse assessed as tonic seizure level at 30 mg/kg, ip administered 30 mins before bicuculline challenge measured after 30 mins; format: functional; conditions: route intraperitoneal
Mus musculus [16] = assay: Anticonvulsant activity in KunMing mouse assessed as protection against maximal electroshock-induced seizure at 7.5 mg/kg, ip after 0.5 hrs; format: functional, organism-based; set-up: dose 7.5 mg/kg

| SMILES | Activity (Mus musculus [1]) | Activity (Mus musculus [3]) | ED50 (Mus musculus [4]) [mg/kg] | PI (Mus musculus [5]) | TD50 at 1 min [6] [mg/kg] | other results |
| --- | --- | --- | --- | --- | --- | --- |
| O=c1[nH]nc2n1-c1ccc(OCc3ccccc3Cl)cc1SC2 | inactive |  |  |  |  |  |
| N#Cc1ccccc1COc1ccc2c(c1)SCc1n[nH]c(=O)n1-2 | inactive |  |  |  |  |  |
| O=c1[nH]nc2n1-c1ccc(OCc3cccc(Cl)c3)cc1SC2 | Active |  |  |  |  | Activity (Mus musculus [2]): inactive |
| CCOc1ccc2c(c1)SCc1n[nH]c(=O)n1-2 | Active | inactive |  |  |  |  |
| CCCCCCOc1ccc2c(c1)CCC(=O)N2 |  |  | 24 | 2.4 |  |  |
| CCCCCOc1ccc2c(c1)SCc1n[nH]c(=O)n1-2 | Active | Active | 7.1 | 11.5 | 81.8 | Activity (Mus musculus [2]): Active |
| O=c1[nH]nc2n1-c1ccc(OCc3ccc(F)cc3)cc1SC2 | Active | Active | 9.2 | 15.4 | 141 | Activity (Mus musculus [7]): 100%; Activity (Mus musculus [8]): 60%; Activity (Mus musculus [9]): 90%; Activity (Mus musculus [10]): 10%; Activity (Mus musculus [11]): 0%; Activity (Mus musculus [12]): 80%; Activity (Mus musculus [13]): 30%; Activity (Mus musculus [14]): 100%; Activity (Mus musculus [15]): 10% |
| NC(=O)N1c2ccccc2C=Cc2ccccc21 [CARBAMAZEPINE] |  |  | 11.8 | 6.4 |  | Activity (Mus musculus [7]): 100%; Activity (Mus musculus [9]): 100%; Activity (Mus musculus [10]): 0%; Activity (Mus musculus [11]): 0%; Activity (Mus musculus [12]): 10%; Activity (Mus musculus [13]): 60%; Activity (Mus musculus [14]): 100%; Activity (Mus musculus [15]): 0% |
| CCCCCCOc1ccc2c(c1)SCc1n[nH]c(=O)n1-2 | Active | Active | 7.9 | 11.3 | 89.6 | Activity (Mus musculus [2]): Active |
| CCCCCCCOc1ccc2c(c1)SCc1n[nH]c(=O)n1-2 |  |  |  |  |  | Activity (Mus musculus [16]): inactive |
| CCCOc1ccc2c(c1)SCc1n[nH]c(=O)n1-2 | Active | Active | 12.2 | 7 | 84.9 |  |
| O=c1[nH]nc2n1-c1ccc(OCc3ccccc3F)cc1SC2 | Active |  |  |  |  | Activity (Mus musculus [16]): inactive |
| CCCCOc1ccc2c(c1)SCc1n[nH]c(=O)n1-2 | Active | Active | 7.9 | 14.9 | 118 | Activity (Mus musculus [2]): Active |
| O=c1[nH]nc2n1-c1ccc(OCc3ccc(Cl)cc3)cc1SC2 |  |  |  |  |  | Activity (Mus musculus [2]): inactive |
| CCCCCOc1ccc2c(c1)SCC(=O)N2 |  |  | 34.1 | 8.9 | 306 |  |
| O=c1[nH]nc2n1-c1ccc(OCc3cccc(F)c3)cc1SC2 | Active |  |  |  |  | Activity (Mus musculus [16]): inactive |
| O=c1[nH]nc2n1-c1ccc(OCc3ccccc3)cc1SC2 | Active |  | 12.2 | 7.8 | 94.7 |  |
| O=c1[nH]nc2n1-c1ccc(OCc3cccc(C(F)(F)F)c3)cc1SC2 |  | inactive |  |  |  |  |
| O=c1[nH]nc2n1-c1ccc(OCc3c(Cl)cccc3Cl)cc1SC2 |  |  |  |  |  | Activity (Mus musculus [2]): inactive |
| CCCCCCCCCCCCOc1ccc2c(c1)SCc1n[nH]c(=O)n1-2 | inactive |  |  |  |  |  |
| CCCCCCCCOc1ccc2c(c1)SCc1n[nH]c(=O)n1-2 | inactive |  |  |  |  |  |
| Cc1ccc(COc2ccc3c(c2)SCc2n[nH]c(=O)n2-3)cc1 | Active | Active |  |  |  | Activity (Mus musculus [16]): inactive |
| CCCCCCCCCCCCCCOc1ccc2c(c1)SCc1n[nH]c(=O)n1-2 | inactive |  |  |  |  |  |
